Experimental data from patent publication US20250025438A1, “Derivative of aspartic acid and use thereof in treatment of metabolic diseases such as hepatic fibrosis and non-alcoholic hepatitis” (SHENZHEN JINGTAI TECHNOLOGY CO., LTD., priority 2021, published 2025).
Where a SMILES comes first, the peptide text is derived from it.

Columns and labels:
[1] = Pharmacokinetic testing in rats; assay type: in vivo, SD rats; conditions: male, SD, rat, plasma, PO 20 mg/kg
Method: Rats were used as test animals to study the pharmacokinetic behavior of the following compounds in rat plasma.
The drugs were self-made according to the examples of the present invention.
SD rats, 6-8 weeks old, 3 for each administration method/example, male.
The animals were fasted overnight, ate food 8 hours after taking the drug, and drank water freely.
Blood was collected before administration and at 5 min, 15 min, 30 min, 1 hr, 2 hr, 4 hr, 8 hr and 24 hr after administration.
The blood was placed on wet ice and centrifuged to obtain plasma sample (2000 g, 5 min at 4° C.).
The LC-MS/MS method was used to determine the blood drug concentration. The HPLC conditions were: mobile phase A: H2O-0.5% FA; mobile phase B: ACN-0.5% FA;
WinNonlin 8.2 non-compartmental model was used to estimate pharmacokinetic parameters (PK parameters, including but not limited to peak concentration (Cmax), time to peak (Tmax), terminal elimination rate (Ke), terminal elimination half-life (T1/2), area under drug-time curve (AUC), clearance rate (CL), apparent volume of distribution (Vd), mean residence time (MRT), bioavailability (F), etc.).

COL1A2 = assay: In vitro efficacy in semi-activated LX2 cells, qPCR: COL1A2; assay type: cell-based; conditions: Q-PCR; for inhibition at 50 µM: Homo sapiens, LX-2, 48 hours, read-out: COL1A2 mRNA inhibition rate
Method: (§1) Test compounds were added to the LX-2 cells respectively, and total RNA in the cells was extracted 48 hours later. This experiment was performed strictly in accordance with the instructions of the Total RNA Kit. The steps were as follows (note: this experiment was performed on ice throughout the entire process, and special RNase-free tips were used throughout the entire process): • 1) The 12-well cell culture plate was taken out from the incubator, the cell culture medium was discarded, the cells were washed twice with 1 mL of 1×PBS, and a negative pressure suction device was used to fully remove PBS; • 2) 350 μL of TRK Lysis Buffer mixture/well was prepared as needed (mixture preparation method: 1 mL of TRKLysis Buffer+20 μL of β-mercaptoethanol), vortexed and mixed well. 350 μL was added to each well of the 12-well cell culture plate, and allowed to stand at room temperature for 5 minutes to fully lyse the cells; • 3) 70% ethanol/well was prepared as needed, vortexed and mixed well. 350 μL was added to each well of the 12-well cell culture plate, mixed well by shaking, and transferred to the spin column (spin column+collection tube were assembled); • 4) Centrifugation was performed at 4° C., 12000 g for 60 sec. The waste liquid was discarded after centrifugation, while the spin column was kept; • 5) 500 μL of RNA Wash Buffer I was added, centrifuged at 4° C., 12000 g for 60 sec, the waste liquid was discarded after centrifugation, and the collection column was kept; • 6) 500 μL of RNA Wash Buffer II (confirmed that ethanol had been added) was added, centrifuged at 4° C., 12000 g for 60 sec, the waste liquid was discarded after centrifugation, and the collection column was kept; • 7) step 6) was repeated once again, centrifugation was performed at 4° C., 12000 g for 90 sec, the waste liquid was discarded after centrifugation, and the collection column was kept; • 8) Centrifugation was performed at 4° C., 12000 g for 120 sec to ensure that the spin column was fully dried; • 9) The dried spin column was inserted into a new 1.5 mL EP tube, and 30 μL of DEPC water was added to the membrane in the center of the spin column. It should be careful not to touch the EP tube cover in this step. It was allowed to stand at room temperature for 5 minutes to ensure that the RNA was fully dissolved in DEPC water. Centrifugation was performed at 4° C., 12000 g for 60 sec, and the EP tube was kept; • 10) NanoDrop ultra-micro-volume spectrophotometer was used to detect RNA concentration;
(§2) 5.2 Reverse transcription of RNA into cDNA: According to the instructions of PrimeScript™ RT reagent Kit (Perfect Real Time), the specific experimental steps were as follows:
(§3) 5.3 Q-PCR detection of target gene expression: According to the instructions of Power SYBR® Green PCR Master Mix, the specific operations were as follows:
(§4) After the reaction was completed, the amplification curve and dissolution curve of Q-PCR were confirmed, and the relative quantification method ([…]) was used to perform data analysis on the experimental results.
(§5) LX2 cells were passaged and plated normally. After adherent growth for 12 hours, 50 µM of the test compound was added. After 48 hours, the cells were collected, total RNA was extracted, and Q-PCR was used to detect the changes in the mRNA expression levels of liver fibrosis-related genes (ACTA2 encoding α-SMA, COL1A1 and COLIA2 encoding collagen I, COL3A1 encoding collagen III, SMAD3 encoding Smad3) and inflammation-related genes (IL1β encoding IL-1β, TNFα encoding TNFα) (for specific methods, see 5. Q-PCR detection of target gene expression as described above). α-SMA was a marker of hepatic stellate cell activation, and collagen I and collagen III were the main components of extracellular matrix deposition.

TNF-α = assay: In vitro efficacy in semi-activated LX2 cells, qPCR: TNF-α; assay type: cell-based; conditions: Q-PCR; for inhibition at 50 µM: Homo sapiens, LX-2, 48 hours, read-out: TNF-α mRNA inhibition rate
Method: as §1, §2, §3, §4, §5

[2] = tested on: collagen I and collagen III; assay: Semi-activated LX2 cells, qPCR: collagen I and collagen III at the mRNA level; assay type: cell-based; conditions: 48 hours, Q-PCR, Table 2
Method: as §1, §3
as §5, with “deposition. […]” for “deposition.”

COL1A1 = assay: In vitro efficacy in semi-activated LX2 cells, qPCR: COL1A1; assay type: cell-based; conditions: 48 hours, Q-PCR; for inhibition at 50 µM: Homo sapiens, LX-2, 50 µM, read-out: COL1A1 mRNA inhibition rate
Method: as §1, §2, §3, §4
as §5, with “After adherent growth for 12 hours, 50 µM of the test compound was added.” left out

Smad3 = assay: In vitro efficacy in semi-activated LX2 cells, qPCR: Smad3; assay type: cell-based; conditions: 48 hours, Q-PCR; for inhibition at 50 µM: Homo sapiens, LX-2, 50 µM, read-out: Smad3 mRNA inhibition rate; for inhibition of the expression of Smad3 at the mRNA level: Table 2
Method: as §1, §2, §3, §4
as §5, with “After adherent growth for 12 hours, 50 µM of the test compound was added.” left out

α-SMA [3] = assay: In vitro efficacy in semi-activated LX2 cells, qPCR: α-SMA; assay type: cell-based; conditions: 48 hours, Q-PCR; for inhibition at 50 µM: read-out: α-SMA mRNA inhibition rate; for inhibition of the expression of α-SMA at the mRNA level: Table 2
Method: as §1, §2, §3, §4
as §5, with “After adherent growth for 12 hours, 50 µM of the test compound was added.” left out

COL3A1 = assay: In vitro efficacy in semi-activated LX2 cells, qPCR: COL3A1; assay type: cell-based; conditions: 48 hours, Q-PCR; for inhibition at 50 µM: Homo sapiens, LX-2, 50 µM, read-out: COL3A1 mRNA inhibition rate
Method: as §1, §2, §3, §4
as §5, with “After adherent growth for 12 hours, 50 µM of the test compound was added.” left out

IL-1β = assay: In vitro efficacy in semi-activated LX2 cells, qPCR: IL-1β; assay type: cell-based; conditions: 48 hours, Q-PCR; for inhibition at 50 µM: Homo sapiens, LX-2, 50 µM, read-out: IL-1β mRNA inhibition rate
Method: as §1, §2, §3, §4
as §5, with “After adherent growth for 12 hours, 50 µM of the test compound was added.” left out

[4] = tested on: liver fibrosis-related genes; assay: Semi-activated LX2 cells, qPCR: liver fibrosis-related genes overall; assay type: cell-based; conditions: 48 hours, Q-PCR, Table 2
Method: as §1, §3, §5

α-SMA [5] = assay: Semi-activated LX2 cells, Western blot: α-SMA protein; assay type: cell-based; conditions: 50-400 μM, 48 hours, FIG. 2, vs 50 μM aspartic acid

Row | Compound | inhibition at 50 µM (COL1A2) [%] | inhibition at 50 µM (TNF-α) [%] | inhibition of the expression of collagen I and collagen III at the mRNA level [2] | inhibition at 50 µM (COL1A1) [%] | inhibition at 50 µM (Smad3) [%] | inhibition at 50 µM (α-SMA [3]; 50 µM) [%] | inhibition at 50 µM (COL3A1) [%] | inhibition at 50 µM (IL-1β) [%] | other results
1 | N[C@@H](CC(=O)O)C(=O)O [Aspartic acid, aspartic acid] | – | – | – | – | – | – | – | – | AUC(0-t) [1]: 26700 ng·h/mL; Tmax [1]: 24 h; Cmax ([1]; read-out: Cmax): 1960 ng/mL
2 | O=C(O)C[C@H](NC(=O)OCc1ccccc1)C(=O)O [Compound 2] | 1 to 10 | 10 to 25 | could inhibit | 25 to 50 | 1 to 10 | 1 to 10 | 10 to 25 | 1 to 10 | –
3 | C=CCOC(=O)[C@H](CC(=O)O)NC(=O)OCC1c2ccccc2-c2ccccc21 [Compound 10] | 1 to 10 | 10 to 25 | could inhibit | 1 to 10 | 1 to 10 | 1 to 10 | 10 to 25 | 1 to 10 | –
4 | CCOC(=O)C[C@H](N)C(=O)OCC.Cl [Compound 12] | – | – | could inhibit | – | – | – | – | – | COL1A2 mRNA inhibition rate (COL1A2; 50 µM, 48 hours): E (E represented that the inhibition rate was 1% to 10%); TNF-α mRNA inhibition rate (TNF-α; 50 µM, 48 hours): D (D represented that the inhibition rate was 10% to 25%); COL1A1 mRNA inhibition rate (COL1A1; 50 µM): C (C represented that the inhibition rate was 25% to 50%); inhibition of the mRNA expression levels of liver fibrosis-related genes (overall) [4]: stronger effects; Smad3 mRNA inhibition rate (Smad3; 50 µM): D (D represented that the inhibition rate was 10% to 25%); inhibition of the expression of Smad3 at the mRNA level (Smad3): could inhibit; α-SMA mRNA inhibition rate (α-SMA [3]; 50 µM): E (E represented that the inhibition rate was 1% to 10%); COL3A1 mRNA inhibition rate (COL3A1; 50 µM): C (C represented that the inhibition rate was 25% to 50%); IL-1β mRNA inhibition rate (IL-1β; 50 µM): E (E represented that the inhibition rate was 1% to 10%)
5 | CC(C)(C)OC(=O)C[C@H](N)C(=O)O [Compound 13] | 1 to 10 | 1 to 10 | – | – | – | 1 to 10 | – | 1 to 10 | –
6 | N[C@@H](CC(=O)OC1CCCCC1)C(=O)O [Compound 23] | 1 to 10 | 1 to 10 | – | 1 to 10 | 1 to 10 | – | 1 to 10 | 1 to 10 | –
7 | COC(=O)[C@H](CC(=O)O)NC(=O)OC(C)(C)C [Compound 26] | 1 to 10 | 10 to 25 | could inhibit | 25 to 50 | 10 to 25 | 10 to 25 | 25 to 50 | – | inhibition of the mRNA expression levels of liver fibrosis-related genes (overall) [4]: stronger effects; inhibition of the expression of Smad3 at the mRNA level (Smad3): could inhibit; inhibition of the expression of α-SMA at the mRNA level (α-SMA [3]): could inhibit
8 | NCC(=O)N[C@@H](CC(=O)O)C(=O)O [Compound 28] (H-Gly-Asp-OH) | 1 to 10 | 1 to 10 | could inhibit | 10 to 25 | 10 to 25 | 10 to 25 | 10 to 25 | 10 to 25 | inhibition of the expression of Smad3 at the mRNA level (Smad3): could inhibit; inhibition of the expression of α-SMA at the mRNA level (α-SMA [3]): could inhibit
9 | CC(=O)N[C@@H](CC(=O)O)C(=O)O [Compound 30] | 1 to 10 | – | could inhibit | 25 to 50 | – | 1 to 10 | – | 10 to 25 | –
10 | CNC(=O)C[C@H](N)C(=O)O [Compound 33] | 1 to 10 | – | could inhibit | 25 to 50 | 1 to 10 | 25 to 50 | 1 to 10 | 1 to 10 | inhibition of the expression of α-SMA at the mRNA level (α-SMA [3]): could inhibit
11 | N[C@@H](CC(=O)O)C(=O)N[C@@H](Cc1ccccc1)C(=O)O [Compound 39] (H-Asp-Phe-OH) | 1 to 10 | 1 to 10 | – | – | – | – | 1 to 10 | – | –
12 | CC(C)(C)OC(=O)C[C@H](N)C(=O)OC(C)(C)C [Compound 41] | – | – | – | – | – | – | 1 to 10 | 1 to 10 | inhibitory effect on α-SMA protein as compared to ASP (α-SMA [5]): stronger inhibitory effects
13 | CCC(=O)N[C@@H](CC(=O)O)C(=O)O [Compound 58, propionyl-L-aspartic acid] | 1 to 10 | – | – | – | – | 1 to 10 | 1 to 10 | 1 to 10 | –
14 | COC(=O)N[C@@H](CC(=O)O)C(=O)O [Compound 61, (methoxycarbonyl)-L-aspartic acid] | 1 to 10 | 1 to 10 | could inhibit | 25 to 50 | 1 to 10 | – | 1 to 10 | 1 to 10 | –
